Laboratory results published in US12084436B2, “Heterocyclic compound” (Takeda Pharmaceutical Company Limited, priority 2019, dated 2024).

target: T1, HDAC6 enzyme (Homo sapiens, UniProt Q9UBN7); assay: HDAC6 enzyme inhibitory assay (HDAC-Glo I/II Assay kit, luminescence); format: biochemical; conditions: 10 μM test compound; wells without enzyme = 100% inhibition; read-out: HDAC6 inhibitory rate (%) (10 μM)
T1 construct: prepared by transducing full length HDAC6 gene into Sf-9 insect cells; GST; purchased SignalChem; host or cells: Sf-9 insect cells
T1 sequence (Q9UBN7 1-1215): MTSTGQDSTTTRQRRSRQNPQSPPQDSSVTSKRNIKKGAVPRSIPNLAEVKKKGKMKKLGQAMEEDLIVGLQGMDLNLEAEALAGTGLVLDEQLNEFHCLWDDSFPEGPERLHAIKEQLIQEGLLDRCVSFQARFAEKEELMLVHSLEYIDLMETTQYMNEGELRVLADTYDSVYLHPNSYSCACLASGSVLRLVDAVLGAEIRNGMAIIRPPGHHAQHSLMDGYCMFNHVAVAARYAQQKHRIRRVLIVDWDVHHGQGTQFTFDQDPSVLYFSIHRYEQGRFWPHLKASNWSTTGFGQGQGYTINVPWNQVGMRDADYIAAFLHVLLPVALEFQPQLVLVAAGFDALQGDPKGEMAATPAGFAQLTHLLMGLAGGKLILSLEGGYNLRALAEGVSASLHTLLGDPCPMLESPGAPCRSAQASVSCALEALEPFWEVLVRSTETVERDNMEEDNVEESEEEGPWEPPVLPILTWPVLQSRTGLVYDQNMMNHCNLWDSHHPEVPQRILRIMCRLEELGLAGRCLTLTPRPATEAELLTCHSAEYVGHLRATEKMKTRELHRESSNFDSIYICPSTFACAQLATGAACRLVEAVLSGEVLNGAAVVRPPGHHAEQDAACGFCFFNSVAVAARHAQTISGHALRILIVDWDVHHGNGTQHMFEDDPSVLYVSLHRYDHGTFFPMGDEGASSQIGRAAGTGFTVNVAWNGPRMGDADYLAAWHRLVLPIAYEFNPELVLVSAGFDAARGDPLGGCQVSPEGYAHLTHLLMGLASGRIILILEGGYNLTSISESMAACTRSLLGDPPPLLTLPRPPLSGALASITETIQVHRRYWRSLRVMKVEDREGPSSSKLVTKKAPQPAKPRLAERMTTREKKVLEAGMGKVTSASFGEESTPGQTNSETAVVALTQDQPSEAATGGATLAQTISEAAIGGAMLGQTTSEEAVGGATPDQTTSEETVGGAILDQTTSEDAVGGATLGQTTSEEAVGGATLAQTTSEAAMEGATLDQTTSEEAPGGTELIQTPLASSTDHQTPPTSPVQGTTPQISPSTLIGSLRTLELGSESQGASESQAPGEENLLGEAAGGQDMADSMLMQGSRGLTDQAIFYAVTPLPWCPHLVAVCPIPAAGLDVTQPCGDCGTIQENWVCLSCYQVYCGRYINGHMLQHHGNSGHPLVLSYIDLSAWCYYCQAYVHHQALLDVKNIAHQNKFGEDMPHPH
In short: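 Full-length human HDAC6, GST-purified from Sf-9 cells, was preincubated with compound for 60 min at room temperature in Tris-HCl pH 7.5 buffer with glutathione and Tween-20. Substrate-developer was then added, and luminescence was read after 20 min at room temperature. Inhibition was expressed relative to no-enzyme wells, taken as 100% inhibition.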

Row | inhibition at 10 µM [%] | SMILES
1 | 100 | COc1ccccc1Cn1ccnc1-c1cc(-c2nnc(C(F)F)o2)ccn1 [Example 84a, 4-[5-(difluoromethyl)-1,3,4-oxadiazol-2-yl]-2-{1-[(2-methoxyphenyl)methyl}-1H-imidazol-2-yl}pyridine]
2 | 100 | FC(F)c1nnc(-c2ccnc(-c3nccn3Cc3cncc(Cl)c3)c2)o1 [Example 93a, 2-{1-[(5-chloropyridin-3-yl)methyl]-1H-imidazol-2-yl}-4-[5-(difluoromethyl)-1,3,4-oxadiazol-2-yl]pyridine]
3 | 100 | CN(Cc1ccc(F)cc1)N1Cc2ncc(-c3nnc(C(F)F)o3)cc2C1=O [Example 69c, 3-[5-(difluoromethyl)-1,3,4-oxadiazol-2-yl]-6-{[(4-fluorophenyl)methyl](methyl)amino}-6,7-dihydro-5H-pyrrolo[3,4-b]pyridin-5-one]
4 | 98 | Cc1cc(Cn2ccnc2-c2cc(F)cc(-c3nnc(C(F)F)o3)c2)no1 [Example 61a, 2-(difluoromethyl)-5-(3-fluoro-5-{1-[(5-methyl-1,2-oxazol-3-yl)methyl]-1H-imidazol-2-yl}phenyl)-1,3,4-oxadiazole]
5 | 99 | N#Cc1cccc(Cn2ccnc2-c2cc(-c3nnc(C(F)F)o3)ccn2)n1 [Example 94a, 6-[(2-{4-[5-(difluoromethyl)-1,3,4-oxadiazol-2-yl]pyridin-2-yl]-1H-imidazol-1-yl)methyl]pyridine-2-carbonitrile]

Further lines, the molecule ahead of its results:

Row | SMILES | inhibition at 10 µM [%]
6 | CN1C(=O)c2cc(-c3nnc(C(F)F)o3)ccc2OC1(C)c1ccccc1 (centres unmarked) [Example 4b, 6-[5-(difluoromethyl)-1,3,4-oxadiazol-2-yl]-2,3-dimethyl-2-phenyl-2,3-dihydro-4H-1,3-benzoxazin-4-one] | 99
7 | Fc1cc(-c2nnc(C(F)F)o2)cc(-c2nccn2CC2CCCOC2)c1 (centres unmarked) [Example 29a, 2-(difluoromethyl)-5-(3-fluoro-5-{1-[(oxan-3-yl)methyl]-1H-imidazol-2-yl}phenyl)-1,3,4-oxadiazole] | 99
8 | O=C1c2cc(-c3nnc(C(F)F)o3)ccc2CN1NCCc1ccc(F)cc1F [Example 19c, 6-[5-(difluoromethyl)-1,3,4-oxadiazol-2-yl]-2-{[2-(2,4-difluorophenyl)ethyl]amino}-2,3-dihydro-1H-isoindol-1-one] | 98
9 | O=C(OC1CCOC1)N(Cc1ccc(F)cc1)N1Cc2ccc(-c3nnc(C(F)F)o3)cc2C1=O (centres unmarked) [Example 26c, oxolan-3-yl {6-[5-(difluoromethyl)-1,3,4-oxadiazol-2-yl]-1-oxo-1,3-dihydro-2H-isoindol-2-yl}[(4-fluorophenyl)methyl]carbamate] | 99
10 | FC(F)c1nnc(-c2ccnc(-c3ncc(Cl)n3Cc3ccccn3)c2)o1 [Example 38a, 2-[5-chloro-1-[(pyridin-2-yl)methyl]-1H-imidazol-2-yl}-4-[5-(difluoromethyl)-1,3,4-oxadiazol-2-yl]pyridine] | 98
11 | Fc1cc(-c2nnc(C(F)F)o2)cc(-c2nccn2Cc2cccnn2)c1 [Example 26a] | 96
12 | O=C1c2cc(-c3nnc(C(F)F)o3)ccc2CN(c2ccc(F)cc2)N1CC(F)F [Example 48b, 2-(2,2-difluoroethyl)-7-[5-(difluoromethyl)-1,3,4-oxadiazol-2-yl]-3-(4-fluorophenyl)-3,4-dihydrophthalazin-1(2H)-one] | 101
13 | CN1CCC(COc2cccnc2-c2cc(F)cc(-c3nnc(C(F)F)o3)c2)CC1=O (centres unmarked) [Example 14a, 4-{[(2-{3-[5-(difluoromethyl)-1,3,4-oxadiazol-2-yl]-5-fluorophenyl}pyridin-3-yl)oxy]methyl}-1-methylpiperidin-2-one] | 97
14 | O=C1NN(CC(F)(F)F)Cc2ccc(-c3nnc(C(F)F)o3)cc21 [Example 15b, 7-[5-(difluoromethyl)-1,3,4-oxadiazol-2-yl]-3-(2,2,2-trifluoroethyl)-3,4-dihydrophthalazin-1(2H)-one] | 88
